Data on one compound can be found in US20220249415A1, “COMPOSITION OF AZELAIC ACID HAVING ADIPOSE TRIGLYCERIDE HYDROLYSIS EFFECT” (Korea University Research and Business Foundation, priority 2018, published 2022).

The target in one assay is Olfr544 (Mus musculus, UniProt E9PX47). Description: CRE-luciferase reporter gene assay in Hana3A cell line transfected with Olfr544 expression vector. Format: cell-based. Here is the method:
In order to evaluate an activity of azelaic acid as an Olfr544 ligand in vitro assay, reporter gene assay was performed. Generally, a degree of gene expression of the olfactory receptor (OR) in tissue cells was low and a degree of protein expression also was low, such that research into the olfactory receptor was difficult. In order to solve this problem, a Hana3A cell line was supplied from a team led by professor Hiroaki Matsunami of Duke University and used in an experiment (Zhuang H., et al., Nat. Protocol, 3:1402-1413, 2008).
The reporter gene assay was performed as follows. First, after an Olfr544 expression vector and a cAMP response element (CRE)-Luciferase reporter vector were transfected into the Hana3A cell line, the transfected Hana3A cell line was treated with azelaic acid for 18 hours. Then, a luciferase activity was measured using a Firefly luciferase (FL) assay kit, and a dose response curve (DRC) was drawn based on the measured luciferase activity, thereby calculating a 50% effective concentration (EC50) corresponding to an index for determining an effect as a ligand (agonist).
For orientation: Reporter assays use an easily measured gene product as a stand-in for the process of interest.

The target in the next assay is T1, OR2K2 (Homo sapiens, UniProt Q8NGT1).
T1 construct: endogenous in cells; host or cells: HepG2
T1 sequence (Q8NGT1 1-316): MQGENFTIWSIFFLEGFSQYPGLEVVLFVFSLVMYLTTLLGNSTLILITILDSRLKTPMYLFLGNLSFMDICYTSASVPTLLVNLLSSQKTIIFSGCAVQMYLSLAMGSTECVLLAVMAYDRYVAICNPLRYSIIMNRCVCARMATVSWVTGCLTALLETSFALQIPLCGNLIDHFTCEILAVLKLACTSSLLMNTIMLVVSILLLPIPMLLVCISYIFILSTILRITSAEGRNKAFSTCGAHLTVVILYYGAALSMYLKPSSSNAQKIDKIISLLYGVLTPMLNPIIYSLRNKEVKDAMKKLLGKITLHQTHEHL
Description: siRNA knock-down of OR2K2 in HepG2 cells, fatty acid oxidation-related gene expression. Type of assay: cell-based. The source says:
The gene expression of OR1E1, OR1K1, OR2K2, OR2S2, OR13C5, and OR51E2, corresponding to the top 6 receptors among 10 human olfactory receptors selected to be expressed in both adipose tissue and liver tissue while interacting with azelaic acid, was knocked down with siRNA in human-derived liver cell and adipocyte lines, namely HepG2 cells and hAMSC cells, respectively. Here, siRNAs that were used were OR1E2 siRNA (sc-93932), OR1K2 (sc-92810), OR2K2 (sc-92852), OR2S2 (sc-92505), OR13C5 (sc-92899), and OR51E2 (sc-76265), purchased from Santa Cruz Biotechnology Inc. (Dallas, Tx USA).
After knock-down treatment, the cell lines were treated with azelaic acid, and triglyceride hydrolysis and fatty acid oxidation-related gene expression in HepG2 cells as a human-derived liver cell line and hAMSC cells as a human-derived adipocyte line were measured.

Olfr544, sequence (E9PX47 entry or part of it): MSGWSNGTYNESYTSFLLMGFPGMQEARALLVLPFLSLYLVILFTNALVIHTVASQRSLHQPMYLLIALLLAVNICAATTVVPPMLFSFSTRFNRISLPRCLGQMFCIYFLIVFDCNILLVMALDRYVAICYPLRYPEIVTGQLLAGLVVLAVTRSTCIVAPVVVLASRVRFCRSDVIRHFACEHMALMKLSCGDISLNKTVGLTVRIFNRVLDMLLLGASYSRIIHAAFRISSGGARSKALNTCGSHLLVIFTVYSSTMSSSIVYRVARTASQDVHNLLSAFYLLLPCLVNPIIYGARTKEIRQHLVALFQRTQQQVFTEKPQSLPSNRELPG

The EC50 is the concentration that produces a half-maximal response. For `O=C(O)CCCCCCCC(=O)O` [azelaic acid, nonanedioic acid], the EC50 at Olfr544 (Olfr544 + CRE-Luciferase reporter in Hana3A cells, 18 hours) was determined as 29.7 µM. Moreover, at Olfr544 (concentration range of 1 to 1000 μM), the Olfr544 activity result was “concentration-dependently increased”. The “expression of fatty acid oxidation-related genes (PPARa, CTP1, Acox2) upon treatment with azelaic acid” value at OR2K2 (HepG2 cells during knock-down of OR2K2) is on record as “did not change”. Also, at OR2K2 (HepG2 cells, OR2K2 knock-down, upon treatment with azelaic acid), the “expression of fatty acid oxidation-related genes (PPARa, CTP1, Acox2), knocked-down group compared to control group” value is recorded as “statistically significantly decreased”.
